Read-outs that look alike come from different tables or passages of the source.
Assays:
[1] = test system: ZIKV PLCal; experiment: CPE-based anti-ZIKV concentration-response assay (96-well); format: cell-based, Zika virus
[2] = test system: ZIKV-RLuc; experiment: microbe, parasite or virus in culture; format: cell-based, Zika virus
[3] = in vitro; settings: African green monkey, CC50 Vero76
[4] = test system: CHIKV; experiment: microbe, parasite or virus in culture; format: cell-based; settings: Vero 76; read-out: EC50-CPE CHIKV
[5] = biological target: ZIKV NS4B (Zika virus, UniProt A0A142I5B9); experiment: biochemical; format: binding
[6] = test system: Vero76
[7] = test system: ZIKV PLCal; experiment: Virus yield (titer) reduction assay in Huh 7.5.1 cells; format: cell-based, Zika virus; settings: 1 µM
[8] = test system: ZIKV-RLuc NS4B V241L; format: cell-based, Zika virus
[9] = test system: ZIKV-RLuc NS4B A245T; format: cell-based, Zika virus
[10] = test system: ZIKV-RLuc NS4B V248G; format: cell-based, Zika virus
[11] = biological target: T1, miniRFP-NS4B (Zika virus, UniProt A0A142I5B9); experiment: Flow cytometric binding assay, miniRFP-NS4B expressing cells; format: cell-based; settings: 293T cells, vs miniRFP alone, miniRFP-NS5 or NS4B-negative cells
T1 construct: 2K-miniRFPnano3-NS4B polypeptide-expressing plasmid (miniRFP-NS4B, hereafter); expressed in transfected cells; host or cells: HEK-293T
Procedure: HEK-293T cells plated in 12-well plates at 70–80% confluency were transfected with plasmid DNA (1 µg/well) using PEI (Polyethylenimine, 3 µg/well) following a protocol described elsewhere. At 24 hours post transfection, cells were harvested by trypsinization, fixed with 2% PFA, and permeabilized with […]. After blocking for one hour with Intercept Protein-Free blocking buffer (Li-Cor), cells were incubated with MWAC-4163 in PBS with 10% blocking buffer for 30 minutes. After extensive washing, cells were analyzed on an Accuri C6 flow cytometer (BD Sciences) using channel 1 for FAM (ex488 nm/em533) and channel 4 (ex640 nm/em675LP) for miniRFP.

[12] = Zika virus, 72 h, Vero 76, MOI 0.05, 3-day incubation, CellTiter-Glo, read-out: EC50-CPE ZIKV-PLCal
[13] = Zika virus, Vero 76, 72 h, wild type ZIKV-RLuc, Vero 76, MOI 0.1, three days, read-out: EC50 ZIKV-RLuc
[14] = wild type ZIKV-RLuc, Vero 76, MOI 0.1, three days, read-out: EC50 ZIKV-RLuc
[15] = Vero 76, MOI 0.05, 3-day incubation, CellTiter-Glo, read-out: EC50-CPE ZIKV-PLCal

Structure (SMILES): CC(C)(C)c1ccc(C(=O)NC2CCN(Cc3ccccc3)CC2)cc1 [MWAC-3512]
- EC50 [1, 12]: 44 µM
- EC50 [2, 13]: 7.4 µM
- CC50 [3]: 58 µM

Structure (SMILES): CC(NC(=O)c1ccc(C(C)(C)C)cc1)c1ccncc1 (stereo not shown) [MWAC-3510]
- EC50 [1, 12]: > 50 µM
- EC50 [2, 13]: 15 µM
- CC50 [3]: > 48 µM

Structure (SMILES): COc1ccc(C(C)NC(=O)c2ccc(C(C)(C)C)cc2)cc1 (racemic) [MWAC-3489]
- EC50 [2, 14]: 1.22 ± 0.86 µM
- EC50 [4]: > 50 µM

Structure (SMILES): CC(C)(C)c1ccc(C(=O)N2C[C@H](C(=O)O)[C@@H](c3cccc(F)c3)C2)cc1 (relative stereo) [MWAC-3533]
- EC50 ([2]; Zika virus, Vero 76, 72 h, read-out: EC50 ZIKV-RLuc): ~16 µM
- Kd [5]: ~35 µM
- 19F-NMR signal change with ZIKV NS4B ([5]; compound 50 µM): shifted by the presence of ZIKV NS4B in a concentration-dependent manner

Structure (SMILES): O=C(NC1CC2CCC1C2)c1ccc(C(F)(F)F)cc1 (stereo not drawn) [MWAC-3997, N-((exo)-bicyclo[2.2.1]heptan-2-yl)-4-(trifluoromethyl)benzamide]
- EC50 [1, 15]: 39 ± 15.3 µM
- EC50 [2, 14]: 4.06 ± 1.17 µM
- CC50 [6]: > 50 µM

Structure (SMILES): O=C(NC1CC2CCC1C2)c1ccc(C2CC2)cc1 (stereo not drawn) [MWAC-3990, N-((exo)-bicyclo[2.2.1]heptan-2-yl)-4-cyclopropylbenzamide]
- EC50 [1, 15]: 33.1 ± 25.5 µM
- EC50 [2, 14]: 3.01 ± 1.11 µM
- CC50 [6]: 22.7 µM

Structure (SMILES): CC(C)(C)c1ccc(C(=O)NC2CCCCC2)cc1 [MWAC-4000, 4-(tert-butyl)-N-cyclohexylbenzamide]
- EC50 ([1]; Zika virus, Fig 7, read-out: CPE EC50): 0.21 µM
- Fold-change of EC50, Wt ([2]; ZIKV RLuc assay, reference): 1
- EC50 [2, 13]: 0.03 ± 0.003 µM
- EC50 ([2]; Zika virus, Fig 7, read-out: RLuc EC50): 0.09 µM
- VYR: Virus Yield reduction (Log 10) [7]: -1.67 ± 0.10 Log 10
- EC50 [8]: 21.3 ± 4.87 µM
- Fold-increase / fold-change of EC50, NS4B V241L vs wild type [8]: 659.3
- EC50 [9]: 0.68 ± 0.09 µM
- Fold-increase / fold-change of EC50, NS4B A245T vs wild type [9]: 21.2
- EC50 [10]: 6.6 ± 0.53 µM
- Fold-increase / fold-change of EC50, NS4B V248G vs wild type [10]: 204.7
- CC50 [3]: > 50 µM

Structure (SMILES): CC(C)(C)c1ccc(C(=O)NC2CCS(=O)(=O)C2)cc1 (stereo not shown) [MWAC-3506]
- EC50 [1, 12]: > 50 µM
- EC50 [2, 13]: > 50 µM
- CC50 [3]: > 50 µM

Structure (SMILES): COc1ccc([C@@H](C)NC(=O)c2ccc(C(C)(C)C)cc2)cc1 [MWAC-4169, (R)-4-(tert-butyl)-N-(1-(4-methoxyphenyl)ethyl)benzamide]
- binding to cells expressing miniRFP-NS4B (FAM-positive frequency) [11]: significantly higher degree of binding

Structure (SMILES): CC(C)c1ccc(C(=O)NC2CC3CCC2C3)cc1 (stereo not drawn) [MWAC-3991, N-((exo)-bicyclo[2.2.1]heptan-2-yl)-4-isopropylbenzamide]
- EC50 [1, 15]: 2.58 ± 1.39 µM
- EC50 [2, 14]: 0.72 ± 0.22 µM
- CC50 [6]: > 50 µM

Structure (SMILES): Cc1ccc(C(=O)NC2CC3CCC2C3)cc1 (stereo not drawn) [MWAC-4010, N-((exo)-bicyclo[2.2.1]heptan-2-yl)-4-methylbenzamide]
- CC50 [6]: > 50 µM
